From patent US20210401929A1 (Northeast Normal University, priority 2020, published 2021)

System: lung inflammation mice model
Experiment: LPS lung inflammation mice model, inflammatory factor mRNA in lung by real-time PCR
Type: in vivo
Details: intranasal, peptide alone without LPS

`N=C(N)NCCC[C@H](NC(=O)[C@H](CCCNC(=N)N)NC(=O)[C@H](CCCNC(=N)N)NC(=O)[C@H](CCC(N)=O)NC(=O)[C@H](CCCNC(=N)N)NC(=O)[C@H](CCCNC(=N)N)NC(=O)[C@H](CCCCN)NC(=O)[C@H](CCCCN)NC(=O)[C@H](CCCNC(=N)N)NC(=O)CNC(=O)[C@@H](N)Cc1ccc(O)cc1)C(=O)O` [TAT] was tested, and the “inflammation in the lungs of mice treated with peptide alone (inflammatory factor mRNA)” value was “do not cause inflammation”.
